As usually defined, the IC50 is the point on the concentration scale where inhibition reaches its midpoint. One may read the inhibition as the percentage by which the read-out fell short of the control. High values mean strong suppression, low ones little suppression.

The structures appear in SMILES notation.

The target in this assay is T1, human NPC1L1 (Homo sapiens, UniProt Q9UHC9).
T1 construct: expressed in transfected cells
T1 sequence (Q9UHC9 22-1359): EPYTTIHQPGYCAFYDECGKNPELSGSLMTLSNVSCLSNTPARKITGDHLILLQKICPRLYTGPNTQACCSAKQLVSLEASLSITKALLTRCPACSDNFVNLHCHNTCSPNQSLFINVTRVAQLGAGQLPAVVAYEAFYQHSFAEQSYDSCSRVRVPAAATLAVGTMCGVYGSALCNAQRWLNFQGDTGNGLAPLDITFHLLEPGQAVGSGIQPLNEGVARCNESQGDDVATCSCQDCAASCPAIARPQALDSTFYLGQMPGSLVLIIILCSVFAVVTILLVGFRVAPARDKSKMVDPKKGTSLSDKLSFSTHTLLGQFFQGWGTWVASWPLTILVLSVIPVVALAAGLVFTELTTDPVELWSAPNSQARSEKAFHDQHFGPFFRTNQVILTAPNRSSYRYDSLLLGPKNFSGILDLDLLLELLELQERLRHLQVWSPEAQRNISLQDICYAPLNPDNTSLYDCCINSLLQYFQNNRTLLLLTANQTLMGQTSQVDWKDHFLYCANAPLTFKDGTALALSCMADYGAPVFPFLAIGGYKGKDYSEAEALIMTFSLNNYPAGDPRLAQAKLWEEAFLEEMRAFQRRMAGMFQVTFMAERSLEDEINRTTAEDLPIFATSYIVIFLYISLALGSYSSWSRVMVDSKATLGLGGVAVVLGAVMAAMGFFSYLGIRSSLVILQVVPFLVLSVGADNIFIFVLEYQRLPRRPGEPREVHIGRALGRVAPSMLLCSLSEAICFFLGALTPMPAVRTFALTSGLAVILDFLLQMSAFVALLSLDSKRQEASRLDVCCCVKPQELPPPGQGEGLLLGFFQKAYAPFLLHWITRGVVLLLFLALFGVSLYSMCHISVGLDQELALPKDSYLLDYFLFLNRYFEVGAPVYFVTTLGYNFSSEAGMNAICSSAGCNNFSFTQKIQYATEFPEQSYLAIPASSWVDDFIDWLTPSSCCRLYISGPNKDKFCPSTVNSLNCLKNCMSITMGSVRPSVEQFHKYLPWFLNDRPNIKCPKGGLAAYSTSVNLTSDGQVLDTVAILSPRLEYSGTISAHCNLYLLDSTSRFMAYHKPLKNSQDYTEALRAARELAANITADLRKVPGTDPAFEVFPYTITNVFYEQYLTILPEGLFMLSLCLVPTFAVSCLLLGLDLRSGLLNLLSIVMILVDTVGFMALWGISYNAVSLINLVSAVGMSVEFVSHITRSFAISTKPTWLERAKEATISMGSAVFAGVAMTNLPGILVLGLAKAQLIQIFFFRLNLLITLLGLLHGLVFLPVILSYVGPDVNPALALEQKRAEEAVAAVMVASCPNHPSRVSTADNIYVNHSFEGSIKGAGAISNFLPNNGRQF
Nature of the assay: In vitro [3H]cholesterol uptake assay in hNPC1L1/MDCKII cells. The class given is cell-based. The conditions noted are these: for IC50: 1 h, read-out: IC50, cholesterol uptake inhibition; for inhibition at 120 µM: MDCK-II, maximum at 120 μM, compared to untreated cells. On the procedure:
Medium A contained DMEM plus 100 units/mL penicillin and 100 μg/mL streptomycin supplemented with 5% lipoprotein-deficient serum (density > 1.21 g/mL, prepared from FCS by ultracentrifugation). Cholesterol Replenishing Medium (Medium B) was prepared according to the modified method reported by Field et al.. In brief, 0.25 mM oleic acid, 50 μM free cholesterol, 10 μM compactin, 50 μM mevalonate, 5 mM Na-taurocholate (Sigma–Aldrich, Germany), and [^3H]cholesterol (0.18 μCi/mL medium, [1,2–3H(N)] cholesterol, 1 mCi/mL (ARC Inc., USA)) in Medium A were mixed and sonicated. Following the micellar formation, compounds 1, 5, 6, 5/6 (70:30), and 6/5 (85:15) (73 mM stock solution in DMSO) were added to Medium B and vortexed to obtain the final concentrations (10, 30, 60, 90, 120, 150, 200 μM).
MDCKII wildtype and hNPC1L1/MDCKII cells were seeded in 24-well plates at a density of 5 × 10^5 cells/mL medium (500 μL medium/well) in Medium A 24 h before the treatment. Cells were washed once with PBS and incubated in Medium B (500 μL medium/well) containing micelles and tested compounds in indicated concentrations for 1 h. Following the incubation, the medium was removed and cells were washed three times with ice-cold 0.2% free fatty acid-free BSA. Cells were lysed and radioactivity in the lysate (100 μL) was determined by liquid scintillation counting. Protein concentrations of the lysates were determined with the DC Protein Assay (Bio-Rad, USA). The results were calculated as cpm/mg protein and expressed as percentage of inhibition compared to untreated cells. Each concentration was tested in duplicate in three independent experiments.

As for `O=C1[C@H](NCC(O)c2ccc(F)cc2)[C@@H](c2ccc(O)cc2)N1c1ccc(F)cc1` (mixture of isomers) [5/6 (70:30), (3R,4R)-3-[(2R/S)-2-(4-fluorophenyl)-2-hydroxyethylamino]-1-(4-fluorophenyl)-4-(4-hydroxyphenyl)azetidin-2-one], the IC50 amounted to 60 µM and the inhibition at 120 µM lay within 50 to 55%.

Turning to `O=C1[C@H](NC[C@@H](O)c2ccc(F)cc2)[C@@H](c2ccc(O)cc2)N1c1ccc(F)cc1` [Compound 6, (3R,4R)-3-[(2S)-2-(4-fluorophenyl)-2-hydroxyethylamino]-1-(4-fluorophenyl)-4-(4-hydroxyphenyl)azetidin-2-one], the IC50 is 80 µM and the inhibition at 120 µM was 50 to 55%. As to `O=C1[C@H](CC[C@H](O)c2ccc(F)cc2)[C@@H](c2ccc(O)cc2)N1c1ccc(F)cc1` [Compound 1, ezetimibe, reference compound], the “effect on cholesterol uptake” value (Figure S3) was “inhibited cholesterol uptake”. Turning to `O=C1[C@H](NC[C@H](O)c2ccc(F)cc2)[C@@H](c2ccc(O)cc2)N1c1ccc(F)cc1` [Compound 5], the IC50 amounted to 72 µM and the inhibition at 120 µM is 50 to 55%.

The record behind these values is paper PMC4237514, “Novel amino-β-lactam derivatives as potent cholesterol absorption inhibitors” (European Journal of Medicinal Chemistry, 2014).
